Several values for one entry are separate records, joined by “and”; a condition that tells them apart may be missing. Equal values may be shown once.
Assays:
Set-up in all cases: species or system mouse
[1] = test system: de-endothelialized, pressurized MCA segments (C57BL/6 male); test: EtOH-induced constriction of pressurized MCA in vitro; conditions: for change in artery diameter (EtOH-induced constriction): Fig 8B, individual replicates
Description: Eight-12 week-old C57BL/6J and KCNMB1^−/− on C57BL/6 background mice of both sexes were deeply anesthetized with isoflurane via inhalation in a tightly sealed jar. Resistance size MCAs (~100 μm in external diameter) were dissected out of the mouse brains after animal euthanasia with sharp scissors. For de-endothelialized records, the endothelium was removed by passing an air bubble into the vessel lumen for 90 s[30]. This method has been consistently used by our group and validated using endothelium-dependent versus endothelium-independent vasodilators[16],[26]. Arteries were cannulated as previously described by our group[26],[40]. MCAs were cut into 5 to 10 mm-long segments under a microscope (Nikon SMZ645). The segment was cannulated at each end, and the artery exterior was continuously perfused with physiologic sodium saline (PSS) of the following composition (mM): 119 NaCl, 4.7 KCl, 1.2 KH2PO4, 1.6 CaCl2, 1.2 MgSO4, 0.023 EDTA, 11 glucose, 24 NaHCO3, pH=7.4. PSS was continuously bubbled with an O2/CO2/N2 (21/5/74%) gas mixture and maintained at 35–37 °C. The artery external wall diameter was measured using the automatic edge-detection function of lonWizard software (lonOptix) via Sanyo VCB-3512T camera (Sanyo Electric Co.). Arteries were first incubated at an intravascular pressure of 10 mm Hg for 10 min. Then intravascular pressure was increased to 60 mmHg and held steady throughout the experiment to induce myogenic tone development and maintenance[19],[30],[51]. Each artery segment was exposed to PROG, PROG-oxime (in presence and absence of 1 µM paxilline) only once to avoid development of desensitization during repeated applications of PROG-containing solution. To determine arterial viability, arterial contractility was probed with a high KCl solution at the end of each experiment. The high KCl solution was composed of the following composition (mM): 63.7 NaCl, 60 KCl, 1.2 KH2PO4, 1.2 MgSO4, 0.023 EDTA, 11 glucose, 24 NaHCO3, 1.6 CaCl2, pH=7.4. Like PSS, the high-KCl solution was continuously bubbled with O2/CO2/N2 (21/5/74%) gas mixture and maintained at 35–37 °C.

[2] = test system: de-endothelialized MCA segments of KCNMB1-/- mice permeabilized with β1 constructs; test: Cerebral artery diameter in vitro, KCNMB1-/- MCA permeabilized with β1 constructs; conditions: Y32V and W163I substitutions; 50 mM EtOH
Description: Eight-12 week-old C57BL/6J and KCNMB1^−/− on C57BL/6 background mice of both sexes were deeply anesthetized with isoflurane via inhalation in a tightly sealed jar. […] For de-endothelialized records, the endothelium was removed by passing an air bubble into the vessel lumen for 90 s[30]. This method has been consistently used by our group and validated using endothelium-dependent versus endothelium-independent vasodilators[16],[26]. Arteries were cannulated as previously described by our group[26],[40]. […] PSS was continuously bubbled with an O2/CO2/N2 (21/5/74%) gas mixture and maintained at 35–37 °C. The artery external wall diameter was measured using the automatic edge-detection function of lonWizard software (lonOptix) via Sanyo VCB-3512T camera (Sanyo Electric Co.). Arteries were first incubated at an intravascular pressure of 10 mm Hg for 10 min. Then intravascular pressure was increased to 60 mmHg and held steady throughout the experiment to induce myogenic tone development and maintenance[19],[30],[51]. […] To determine arterial viability, arterial contractility was probed with a high KCl solution at the end of each experiment. […] Like PSS, the high-KCl solution was continuously bubbled with O2/CO2/N2 (21/5/74%) gas mixture and maintained at 35–37 °C. […]

MCA branches (C57BL/6J) = test: EtOH-induced cerebrovascular constriction in vivo (cranial window); conditions: individual replicates; for artery diameter, normalized to time 0: Fig 8E
Procedure: Eight-12 week-old male and female C57BL/6J mice were anesthetized with a mixture of xylazine/ketamine (12/100 mg per kg) and kept anesthetized for the duration of the experiment with subsequent ketamine doses (50 mg/kg of weight) as needed. A catheter was inserted into the carotid artery so that the infusion went straight to the brain rather than towards the thoracic cavity. An area of the skull was cleared of tissue and thinned to expose the branching arteries originating from the MCA on the side the catheter was inserted, above the zygomatic arch, between the ear and eye of the skull[19],[34]. The exposed arteries branching out from the MCA were monitored using a Leica MC170 HD microscope with a mounted camera (Leica M125 C) connected to a computer monitor. Drugs were diluted to their final concentration in sodium saline (0.9% NaCl) and administered via catheter at 0.1 ml/25 g of weight. Cranial window images before and after drug administration were acquired every 60 seconds for subsequent analysis.

Q: `CCO` [EtOH, ethanol] was tested. Which “EtOH concentration close to EC100 for MCA constriction” value [1] did it give?
A: Its value is roughly 50 mM.

Q: What about the “change in artery diameter (EtOH-induced constriction)” value (“change in artery diameter” below) ([1]; EtOH 10mM) of the same compound?
A: The value was -3.481 and -2.957 and -4.155 and -5.135 and -0.8602.

Q: And the “change in artery diameter” value ([1]; EtOH 35mM)?
A: The value was -3.0303 and -4.876 and -3.6836 and -8.271 and -6.594.

Q: What about the “change in artery diameter” value ([1]; EtOH 50mM) of the same compound?
A: The value was -6.879 and -7.897 and -7.7 and -14.4262 and -10.9422.

Q: And the “change in artery diameter” value ([1]; EtOH 75mM)?
A: Its value is -7.692 and -11.3856 and -9.864 and -10.7879 and -9.705.

Q: And the “constriction of MCA” value [2]?
A: The value was “constriction was still observed”.

Q: What about the “artery diameter, normalized to time 0” value (MCA branches (C57BL/6J); time 0) of the same compound?
A: The value was 1 (5×) and 0.9973.

Q: What about the “artery diameter, normalized to time 0” value (MCA branches (C57BL/6J); time 1) of the same compound?
A: Its value is 1 (2×) and 0.9893 and 0.9693 and 1.069 and 0.888.

Q: And the “artery diameter, normalized to time 0” value (MCA branches (C57BL/6J); time 2)?
A: Its value is 0.8687 and 0.8304 and 0.7155 and 0.777 and 1.057 and 0.6934.

Q: And the “artery diameter, normalized to time 0” value (MCA branches (C57BL/6J); time 3)?
A: Its value is 0.7831 and 1 and 0.7857 and 0.8444 and 1.014 and 0.8086.

Q: What about the “artery diameter, normalized to time 0” value (MCA branches (C57BL/6J); time 4) of the same compound?
A: Its value is 0.7004 and 0.7657 and 0.7155 and 0.7188 and 0.9449 and 0.6934.

Q: And the “artery diameter, normalized to time 0” value (MCA branches (C57BL/6J); time 5)?
A: Its value is 0.6515 and 0.8304 and 0.7857 and 0.7691 and 0.9335 and 0.8086.

Q: And the “artery diameter, normalized to time 0” value (MCA branches (C57BL/6J); time 6)?
A: Its value is 0.7831 and 1 and 0.8849 and 0.8691 and 0.8118 and 0.8086.

Q: And the “artery diameter, normalized to time 0” value (MCA branches (C57BL/6J); time 7)?
A: Its value is 0.7397 and 0.7657 and 0.8849 and 0.7997 and 0.85 and 0.8086.

Q: What about the “artery diameter, normalized to time 0” value (MCA branches (C57BL/6J); time 8) of the same compound?
A: Its value is 0.7004 and 1 and 0.9584 and 0.8381 and 0.823 and 0.6934.

Q: What about the “artery diameter, normalized to time 0” value (MCA branches (C57BL/6J); time 9) of the same compound?
A: The value was 0.6515 and 0.9469 and 0.8849 and 0.7942 and 0.8049 and 0.6934.

Q: What about the “artery diameter, normalized to time 0” value (MCA branches (C57BL/6J); time 10) of the same compound?
A: Its value is 0.6515 and 1 and 0.8849 and 0.8075 and 0.8892 and 0.6934.

Q: And the “artery diameter, normalized to time 0” value (MCA branches (C57BL/6J); time 11)?
A: The value was 0.7831 and 1 and 0.8231 and 0.8249 and 0.8605 and 0.6934.

Q: What about the “artery diameter, normalized to time 0” value (MCA branches (C57BL/6J); time 12) of the same compound?
A: The value was 0.7004 and 0.9469 and 0.9893 and 0.8811 and 0.8191 and 0.888.

Q: And the “artery diameter, normalized to time 0” value (MCA branches (C57BL/6J); time 13)?
A: The value was 0.6515 and 0.8304 and 0.8849 and 0.7651 and 0.797 and 0.6934.

Q: And the “artery diameter, normalized (group comparison)” value (MCA branches (C57BL/6J); Fig 8F)?
A: The value was 0.6886 and 0.733 and 0.6331 and 0.6127 and 0.7046 and 0.7541.
